Drawing on PubChem BioAssay (NCI), this text covers TGI and GI50 for eleven molecules.

Test systems include OVCAR-5 ovarian; MALME-3M melanoma; A549 NSCLC; KM20L2 colon; A498 renal; SNB-19 CNS; SW-620 colon; UACC-62 melanoma; HOP-92 NSCLC; HCT-116 colon.
Holding throughout (test): NCI tumour cell line growth inhibition, 48 h

SMILES strings stand for the structures.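 Cultured in 96-well plates, cells were exposed to test compound for 48 hours across five concentrations. GI50 is the concentration that inhibits growth by half. TGI: total growth inhibition.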 Bounds are passed on as bounds.

Consider `CN1C2C=C(c3ccccc3)CC1CC2` (stereo not given), for which the TGI in the test with OVCAR-5 ovarian, with MALME-3M melanoma, in the test on A549 NSCLC, in the test on KM20L2 colon, in the test on A498 renal and in the test with SNB-19 CNS was more than 100 µM each time. Moreover, the TGI in the test on SW-620 colon, in the test with UACC-62 melanoma, in the test on HOP-92 NSCLC and in the test on HCT-116 colon was more than 100 µM throughout.
In the case of `CCCCN(CCCC)CCCCNc1c(C)cnc2cc(Cl)ccc12`, the TGI in the test with OVCAR-5 ovarian is 39.1 µM; in the test with MALME-3M melanoma, 36.1 µM; in the test on A549 NSCLC it was more than 100 µM; in the test with KM20L2 colon, 36.7 µM; in the test with A498 renal, 86.5 µM; in the test with SNB-19 CNS it was more than 100 µM. Also, the TGI in the test on SW-620 colon was 56.8 µM; in the test on HOP-92 NSCLC it was 36.2 µM; with HCT-116 colon it was 42 µM.
For `O=C(Nc1nc2ccc([N+](=O)[O-])cc2[n+]([O-])n1)C(F)(F)F`, the TGI in the test with OVCAR-5 ovarian was more than 100 µM; in the test with MALME-3M melanoma, 20.4 µM; in the test on A549 NSCLC, 83.8 µM; in the test on A498 renal it was 65.5 µM; in the test on SNB-19 CNS, more than 100 µM; with SW-620 colon, more than 100 µM. Moreover, the TGI with UACC-62 melanoma was 53.1 µM; in the test with HOP-92 NSCLC it was more than 100 µM; in the test with HCT-116 colon it was 60.1 µM.
As to `CC(C)=CCc1c(C)cc2cc3c(c(O)c2c1O)C(O)=CC(=O)C3(CC=C(C)C)C/C=C(\C)CO` (stereo not given), the TGI with OVCAR-5 ovarian amounted to 84.6 µM; in the test on MALME-3M melanoma it was 63.8 µM; in the test with A549 NSCLC, 77 µM; in the test with KM20L2 colon, 76.6 µM; with A498 renal, 15.2 µM; in the test with SNB-19 CNS, 86.2 µM. Also, the TGI in the test on SW-620 colon is 78.9 µM; with UACC-62 melanoma it was 67.5 µM; in the test with HOP-92 NSCLC it was 75.6 µM; in the test with HCT-116 colon it was 72.3 µM.
Turning to `CCOc1ccc2c(ccc(/C=C\c3cc(C)c4cccnc4c3O)[n+]2C)c1`, the TGI was 16.7 µM in the test with OVCAR-5 ovarian; 14 µM in the test with MALME-3M melanoma; 26.4 µM in the test on A549 NSCLC; 37 µM in the test on KM20L2 colon; 9.1 µM with A498 renal; 30.7 µM in the test on SNB-19 CNS. Further, the TGI in the test on SW-620 colon came to 28 µM; with UACC-62 melanoma, 11.4 µM; in the test on HOP-92 NSCLC it was 3.36 µM; in the test on HCT-116 colon, 25 µM.
On to `Cc1ccc(S(=O)(=O)Oc2cc(S(=O)(=O)O)cc3cc(S(=O)(=O)O)cc(N)c23)cc1`, for which the TGI in the test on OVCAR-5 ovarian, in the test with MALME-3M melanoma, with A549 NSCLC, in the test with A498 renal, with SNB-19 CNS and with SW-620 colon was more than 100 µM in each case. In addition, the TGI with UACC-62 melanoma, with HOP-92 NSCLC and in the test on HCT-116 colon was more than 100 µM throughout.
For `COc1cc2c3c(n(CCN(C)C)c(=O)c2cc1OC)-c1cc2c(cc1C3=O)OCO2`, the GI50 in the test with OVCAR-5 ovarian is more than 100 µM; in the test with MALME-3M melanoma it was 6.17 µM; with A549 NSCLC, 0.799 µM; with A498 renal, 15 µM; in the test on SNB-19 CNS, more than 20.7 µM; in the test with SW-620 colon, 2.86 µM. Moreover, the GI50 with HOP-92 NSCLC was 26.7 µM. Further, the TGI in the test with OVCAR-5 ovarian was more than 100 µM; in the test on MALME-3M melanoma it was more than 52.6 µM; with A549 NSCLC, more than 100 µM; in the test with A498 renal, 87.1 µM; in the test with SNB-19 CNS, more than 100 µM; in the test with SW-620 colon it was more than 100 µM. Besides, the TGI with HOP-92 NSCLC was more than 100 µM; in the test with HCT-116 colon, 19.3 µM.
Turning to `Nc1ncnc2c1ncn2C1CCC(CO)O1` (stereo not given), the TGI in the test on OVCAR-5 ovarian, in the test on MALME-3M melanoma, in the test on A549 NSCLC, in the test on KM20L2 colon, in the test with A498 renal and with SNB-19 CNS was more than 100 µM in each case. In addition, the TGI is more than 100 µM in the test on SW-620 colon, more than 100 µM in the test on UACC-62 melanoma, more than 86.4 µM in the test on HOP-92 NSCLC and more than 100 µM in the test on HCT-116 colon.
In the case of `CCN(CC)CCCC(Nc1c2ccc(Cl)cc2nc2ccc(OC)cc12)c1ccc(F)cc1` (stereo not given), the GI50 in the test on OVCAR-5 ovarian was 2.04 µM; in the test with MALME-3M melanoma, 1.99 µM; in the test on A549 NSCLC, 2.44 µM; in the test with A498 renal, 7.37 µM; in the test with SW-620 colon, 1.79 µM; in the test on UACC-62 melanoma it was 1.71 µM. The GI50 in the test on HCT-116 colon is 1.84 µM. Besides, the TGI in the test with OVCAR-5 ovarian came to 5.6 µM; in the test on MALME-3M melanoma it was 3.68 µM; in the test with A549 NSCLC, 5.99 µM; in the test on A498 renal, 21.4 µM; in the test with SW-620 colon, 3.65 µM; with UACC-62 melanoma, 3.25 µM. Besides, the TGI in the test with HCT-116 colon was 3.48 µM.
For the molecule `C[C@]12C=CC(=O)C=C1CC[C@@H]1[C@@H]2C(=O)C[C@@]2(C)[C@H]1CC[C@]2(O)C(=O)CO`, the TGI in the test with OVCAR-5 ovarian, in the test with MALME-3M melanoma, with A549 NSCLC, with A498 renal, in the test on SNB-19 CNS and with SW-620 colon was more than 100 µM in each case. Further, the TGI in the test with UACC-62 melanoma, in the test with HOP-92 NSCLC and in the test on HCT-116 colon was more than 100 µM in each case.
As for `[C-]#[O+].[Cl][Sn]([Cl])[Cl].[Cl][Sn]([Cl])[Cl].[Pt].c1ccncc1`, the TGI in the test with OVCAR-5 ovarian, in the test with MALME-3M melanoma, in the test on A549 NSCLC, in the test on KM20L2 colon, in the test with A498 renal and in the test on SNB-19 CNS was more than 100 µM throughout. Also, the TGI in the test on SW-620 colon, in the test with UACC-62 melanoma, in the test with HOP-92 NSCLC and with HCT-116 colon was more than 100 µM throughout.
